Results: patent US20240190860A1, “8-CYCLO-SUBSTITUTED QUINAZOLINE DERIVATIVES AS LPA RECEPTOR 2 INHIBITORS” (CHIESI FARMACEUTICI S.p.A., priority 2021, published 2024)

These molecules were tested against T1, human recombinant LPA2 expressed in CHO cells (Homo sapiens, UniProt Q9HBW0) (assay: FLIPR calcium mobilization assay, LPA2 antagonism in CHO-hLPA2 cells). Settings: CHO-hLPA2 cells, inhibition of LPA EC80 Ca2+ response, 30 min pre-incubation; read-out: LPA2 IC50.
T1 construct: expressed in transfected cells; host or cells: CHO cells (CHO-hLPA2 cell line)
Format: cell-based
Description: The effectiveness of compounds of the present invention as LPA2 antagonist can be determined at the human recombinant LPA2 expressed in CHO cells, using a FLIPR assay in 384 well format.
CHO-hLPA2 cell lines are cultured in a humidified incubator at 5% C02 in DMEM/F-12 (1:1) MIXTURE with 2 mM Glutamax, supplemented with 10% of Foetal Bovine Serum, 1 mM Sodium Pyruvate, 11 mM Hepes and 1× Penicillin/Streptomycin. CHO hLPA2 cells are seeded into black walled clear-bottom 384-well plates (#781091, Greiner Bio-One GmbH) at a density of 7,500 cells per well in 50 μl culture media and grown overnight in a 37° C. humidified CO2-incubator. Serial dilutions (1:3 or 1:4, 11 points CRC) of compounds are performed in 100% DMSO at 200× the final concentration. The compounds are diluted 1:50 prior to the experiment with Assay Buffer (20 mM HEPES, 145 mM NaCl, 5 mM KCl, 5.5 mM glucose, 1 mM MgCl2 and 2 mM CaCl2, pH 7.4 containing 0.01% Pluronic F-127) to obtain a solution corresponding to […] the final concentration in the assay (4×, 2% DMSO). The final concentration of DMSO in the assay will be 0.5% in each well. Medium is removed by aspiration and cells are then incubated with 30 μl of a loading solution containing 5 μM of the cytoplasmic Ca2+ indicator Cal-520 AM in Assay Buffer containing 2.5 mM probenecid for 30 min at 37° C. incubator (cell loading). The loaded cell plates are transferred into the FLIPR instrument and calcium responses are monitored during the on-line addition protocols. For testing of compounds, after the cell loading, 10 μl/well of 4× antagonists' solution was added onto the cells. After 30 min pre-incubation (at 37° C.), 10 μl/well of 5× concentrated LPA EC80 was added and Ca2+ mobilization responses was followed during the on-line addition protocol. Intracellular peak fluorescence values subtracted by baseline fluorescence are exported and analysed to determine IC50 values, respectively. The calcium response is expressed as percentage of the maximal inhibition of the EC80 agonist response.
The raw data (peak height expressed as relative fluorescence units) are normalized and transformed into “percent of inhibition”. Curve fitting and pIC50 (−LogIC50) estimations are carried out using a four-parameter logistic model using XLfit Software.

T1 sequence (Q9HBW0 whole entry): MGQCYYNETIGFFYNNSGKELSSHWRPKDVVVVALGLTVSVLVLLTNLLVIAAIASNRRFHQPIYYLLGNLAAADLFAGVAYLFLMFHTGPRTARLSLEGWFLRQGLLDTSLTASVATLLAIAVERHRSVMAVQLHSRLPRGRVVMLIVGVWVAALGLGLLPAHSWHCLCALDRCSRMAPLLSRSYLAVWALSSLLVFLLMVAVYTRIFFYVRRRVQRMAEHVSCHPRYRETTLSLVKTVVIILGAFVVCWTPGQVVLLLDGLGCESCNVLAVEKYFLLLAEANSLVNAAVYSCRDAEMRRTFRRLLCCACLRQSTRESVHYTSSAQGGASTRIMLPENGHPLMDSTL

First: C[C@@H](CN1CCN(S(=O)(=O)c2ccc3[nH]c(=O)[nH]c(=O)c3c2)CC1)Nc1ncnc2c(-c3cccnc3)cccc12 [Example 51, 6-({4-[(2S)-2-{[8-(pyridin-3-yl)quinazolin-4-yl]amino}propyl]piperazin-1-yl}sulfonyl)-1,2,3,4-tetrahydroquinazoline-2,4-dione]
Second: C[C@@H](CN1CCN(S(=O)(=O)c2ccc3[nH]c(=O)cnc3c2)CC1)Nc1ncnc2c(-c3cccnc3)cccc12 [Example 59, 6-({4-[(2S)-2-{[8-(pyridin-3-yl)quinazolin-4-yl]amino}propyl]piperazin-1-yl}sulfonyl)-1,2-dihydroquinoxalin-2-one]
The IC50 of the first is lower: under 0.01 µM for the first, 0.01 to 0.1 µM for the second. The first is the more potent here.

`Cc1noc(-c2ccc(S(=O)(=O)N3CCN(C[C@H](C)Nc4ncnc5c(-c6c(C)noc6C)cccc45)CC3)s2)c1C` [Example 9, 8-(3,5-dimethyl-1,2-oxazol-4-yl)-N-[(2S)-1-(4-{[5-(3,4-dimethyl-1,2-oxazol-5-yl)thiophen-2-yl]sulfonyl}piperazin-1-yl)propan-2-yl]quinazolin-4-amine] and `Cc1cc(-c2ccc(S(=O)(=O)N3CCN(C[C@H](C)Nc4ncnc5c(-c6cncnc6)cccc45)CC3)s2)on1` [Example 11, N-[(2S)-1-(4-{[5-(3-methyl-1,2-oxazol-5-yl)thiophen-2-yl]sulfonyl}piperazin-1-yl)propan-2-yl]-8-(pyrimidin-5-yl)quinazolin-4-amine] cannot be ordered by IC50: under 0.01 µM for the first, under 0.01 µM for the second.

First: C[C@@H](CN1CCN(S(=O)(=O)c2ccc3c(c2)sc(=O)n3C)CC1)Nc1ncnc2c(-c3cccnc3)cccc12 [Example 94, 3-methyl-6-({4-[(2S)-2-{[8-(pyridin-3-yl)quinazolin-4-yl]amino}propyl]piperazin-1-yl}sulfonyl)-2,3-dihydro-1,3-benzothiazol-2-one]
Second: Cc1cc(-c2ccc(S(=O)(=O)N3CCN(C[C@H](C)Nc4ncnc5c(-c6cccnc6)cccc45)CC3)s2)on1 [Example 6, N-[(2S)-1-(4-{[5-(3-methyl-1,2-oxazol-5-yl)thiophen-2-yl]sulfonyl}piperazin-1-yl)propan-2-yl]-8-(pyridin-3-yl)quinazolin-4-amine]
The IC50 of the first is higher: 0.01 to 0.1 µM for the first, under 0.01 µM for the second. The second is the more potent here.

`COC(=O)Nc1nc(C)c(S(=O)(=O)N2CCN(C[C@H](C)Nc3ncnc4c(-c5ccc6c(c5)CNC6)cccc34)CC2)s1` [Example 57, methyl N-[5-({4-[(2S)-2-{[8-(2,3-dihydro-1H-isoindol-5-yl)quinazolin-4-yl]amino}propyl]piperazin-1-yl}sulfonyl)-4-methyl-1,3-thiazol-2-yl]carbamate] and `COC(=O)Nc1nc(C)c(S(=O)(=O)N2CCN(C[C@H](C)Nc3ncnc4c(-c5ccc6c(c5)CN(C)C6)cccc34)CC2)s1` [Example 80, methyl N-[4-methyl-5-({4-[(2S)-2-{[8-(2-methyl-2,3-dihydro-1H-isoindol-5-yl)quinazolin-4-yl]amino}propyl]piperazin-1-yl}sulfonyl)-1,3-thiazol-2-yl]carbamate] cannot be ordered by IC50: under 0.01 µM for the first, under 0.01 µM for the second.

First: COC(=O)Nc1nc(C)c(S(=O)(=O)N2CCN(C[C@H](C)Nc3ncnc4c(-c5cnc(C)nc5)cccc34)CC2)s1 [Example 34, methyl N-[4-methyl-5-({4-[(2S)-2-{[8-(2-methylpyrimidin-5-yl)quinazolin-4-yl]amino}propyl]piperazin-1-yl}sulfonyl)-1,3-thiazol-2-yl]carbamate]
Second: COC(=O)Nc1nc(C)c(S(=O)(=O)N2CCN(C[C@H](C)Nc3ncnc4c(-c5cnn(C)c5)cccc34)CC2)s1 [Example 65, methyl N-[4-methyl-5-({4-[(2S)-2-{[8-(1-methyl-1H-pyrazol-4-yl)quinazolin-4-yl]amino}propyl]piperazin-1-yl}sulfonyl)-1,3-thiazol-2-yl]carbamate]
The IC50 of the first is higher: 0.01 to 0.1 µM for the first, under 0.01 µM for the second. The second is the more potent here.

`COC(=O)Nc1nc(C)c(S(=O)(=O)N2CCN(C[C@H](C)Nc3ncnc4c(-c5cncc(NC=O)c5)cccc34)CC2)s1` [Example 72, methyl N-[5-({4-[(2S)-2-{[8-(5-formamidopyridin-3-yl)quinazolin-4-yl]amino}propyl]piperazin-1-yl}sulfonyl)-4-methyl-1,3-thiazol-2-yl]carbamate] and `COC(=O)Nc1nc(C)c(S(=O)(=O)N2CCN(C[C@H](C)Nc3ncnc4c(-c5cncc(C=O)c5)cccc34)CC2)s1` [Example 87, methyl N-[5-({4-[(2S)-2-{[8-(5-formylpyridin-3-yl)quinazolin-4-yl]amino}propyl]piperazin-1-yl}sulfonyl)-4-methyl-1,3-thiazol-2-yl]carbamate] cannot be ordered by IC50: under 0.01 µM for the first, under 0.01 µM for the second.

`CC(=O)N1CCc2cc(S(=O)(=O)N3CCN(C[C@H](C)Nc4ncnc5c(-c6ccc(C)nc6)cccc45)CC3)ccc21` [Example 69, 1-[5-({4-[(2S)-2-{[8-(6-methylpyridin-3-yl)quinazolin-4-yl]amino}propyl]piperazin-1-yl}sulfonyl)-2,3-dihydro-1H-indol-1-yl}ethan-1-one] and `CC(=O)N1CCc2cc(S(=O)(=O)N3CCN(C[C@H](C)Nc4ncnc5c(-c6cccc(CN(C)C)c6)cccc45)CC3)ccc21` [Example 54, 1-[5-({4-[(2S)-2-[(8-{3-[(dimethylamino)methyl]phenyl}quinazolin-4-yl)amino]propyl]piperazin-1-yl}sulfonyl)-2,3-dihydro-1H-indol-1-yl]ethan-1-one] cannot be ordered by IC50: under 0.01 µM for the first, under 0.01 µM for the second.

First: COC(=O)Nc1nc(C)c(S(=O)(=O)N2CCN(C[C@H](C)Nc3ncnc4c(-c5ccc(C)nc5C)cccc34)CC2)s1 [Example 92, methyl N-[5-({4-[(2S)-2-{[8-(2,6-dimethylpyridin-3-yl)quinazolin-4-yl]amino}propyl]piperazin-1-yl}sulfonyl)-4-methyl-1,3-thiazol-2-yl]carbamate]
Second: COC(=O)Nc1nc(C)c(S(=O)(=O)N2CCN(C[C@H](C)Nc3ncnc4c(C5CC5)cccc34)CC2)s1 [Example 41, methyl N-[5-({4-[(2S)-2-[(8-cyclopropylquinazolin-4-yl)amino]propyl]piperazin-1-yl}sulfonyl)-4-methyl-1,3-thiazol-2-yl]carbamate]
The IC50 of the first is lower: under 0.01 µM for the first, 0.01 to 0.1 µM for the second. The first is the more potent here.

First: CC(=O)Nc1cc(F)c(S(=O)(=O)N2CCN(C[C@H](C)Nc3ncnc4c(-c5cccnc5)cccc34)CC2)cc1C [Example 42, N-[5-fluoro-2-methyl-4-({4-[(2S)-2-{[8-(pyridin-3-yl)quinazolin-4-yl]amino}propyl]piperazin-1-yl}sulfonyl)phenyl]acetamide]
Second: CC(=O)Nc1ncc(S(=O)(=O)N2CCN(C[C@H](C)Nc3ncnc4c(-c5cccnc5)cccc34)CC2)s1 [Example 37, N-[5-({4-[(2S)-2-{[8-(pyridin-3-yl)quinazolin-4-yl]amino}propyl]piperazin-1-yl}sulfonyl)-1,3-thiazol-2-yl]acetamide]
The IC50 of the first is higher: 0.01 to 0.1 µM for the first, under 0.01 µM for the second. The second is the more potent here.

`C[C@@H](CN1CCN(S(=O)(=O)c2ccccn2)CC1)Nc1ncnc2c(-c3cn(C)nc3C(F)(F)F)cccc12` [Example 103, 8-[1-methyl-3-(trifluoromethyl)-1H-pyrazol-4-yl]-N-[(2S)-1-[4-(pyridine-2-sulfonyl)piperazin-1-yl]propan-2-yl]quinazolin-4-amine] and `Cc1cc(-c2ccc(S(=O)(=O)N3CCN(C[C@H](C)Nc4ncnc5c(-c6cnc(C(F)(F)F)s6)cccc45)CC3)s2)on1` [Example 15, N-[(2S)-1-(4-{[5-(3-methyl-1,2-oxazol-5-yl)thiophen-2-yl]sulfonyl}piperazin-1-yl)propan-2-yl]-8-[2-(trifluoromethyl)-1,3-thiazol-5-yl]quinazolin-4-amine] cannot be ordered by IC50: 0.01 to 0.1 µM for the first, under 1 µM for the second.

`C[C@@H](CN1CCN(S(=O)(=O)c2ccc3c(c2)CC(=O)N3)CC1)Nc1ncnc2c(-c3cccc(CN(C)C)c3)cccc12` [Example 76, 5-({4-[(2S)-2-[(8-{3-[(dimethylamino)methyl]phenyl}quinazolin-4-yl)amino]propyl]piperazin-1-yl}sulfonyl)-2,3-dihydro-1H-indol-2-one] and `Cc1cc(-c2cc(S(=O)(=O)N3CCN(C[C@H](C)Nc4ncnc5c(-c6cccc(CN(C)C)c6)cccc45)CC3)cs2)on1` [Example 93, 8-{3-[(dimethylamino)methyl]phenyl}-N-[(2S)-1-(4-{[5-(3-methyl-1,2-oxazol-5-yl)thiophen-3-yl]sulfonyl}piperazin-1-yl)propan-2-yl]quinazolin-4-amine] cannot be ordered by IC50: under 0.01 µM for the first, under 0.01 µM for the second.

Work on `Cc1cc(-c2ccc(S(=O)(=O)N3CCN(C[C@H](C)Nc4ncnc5c(-c6cccc(CN7CCCC7)c6)cccc45)CC3)s2)on1` [Example 16, N-[(2S)-1-(4-{[5-(3-methyl-1,2-oxazol-5-yl)thiophen-2-yl]sulfonyl}piperazin-1-yl)propan-2-yl]-8-{3-[(pyrrolidin-1-yl)methyl]phenyl}quinazolin-4-amine] yielded an IC50 of under 0.01 µM.
